Where two headings read alike, the source gives them in different places.
What was measured:
LcrF (VirF) = LcrF (VirF) (Yersinia pestis, UniProt P28808); test: biochemical; type: binding, Y. pseudotuberculosis
Y. pseudotuberculosis = test: microbe, parasite or virus in culture; settings: Yersinia pseudotuberculosis, J774, read-out: % Cytotoxicity
P. aeruginosa = P. aeruginosa cytotoxicity whole cell assay (J774 cells, LDH release); settings: relative to vehicle treated cells infected with wild type P. aeruginosa
ExsA = target: T1, ExsA (Pseudomonas aeruginosa, UniProt P26993); test: Chemiluminescence-based ExsA-DNA binding assay; parameters: species or system P. aeruginosa; settings: Table 7, cell-free system; read-out: ExsA EC50
T1 construct: made in house
T1 sequence (P26993 1-278): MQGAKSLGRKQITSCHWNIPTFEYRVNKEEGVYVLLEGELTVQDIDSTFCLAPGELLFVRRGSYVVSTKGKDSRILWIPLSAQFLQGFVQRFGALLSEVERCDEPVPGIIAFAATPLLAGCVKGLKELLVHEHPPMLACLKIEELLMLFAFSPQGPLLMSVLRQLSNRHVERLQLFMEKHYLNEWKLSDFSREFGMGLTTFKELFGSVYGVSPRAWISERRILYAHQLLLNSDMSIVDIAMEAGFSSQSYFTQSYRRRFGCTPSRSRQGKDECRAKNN

[1] = EC50 for inhibition of LcrF(VirF)-DNA binding

LcrF (VirF), sequence (P28808 whole entry, looked up): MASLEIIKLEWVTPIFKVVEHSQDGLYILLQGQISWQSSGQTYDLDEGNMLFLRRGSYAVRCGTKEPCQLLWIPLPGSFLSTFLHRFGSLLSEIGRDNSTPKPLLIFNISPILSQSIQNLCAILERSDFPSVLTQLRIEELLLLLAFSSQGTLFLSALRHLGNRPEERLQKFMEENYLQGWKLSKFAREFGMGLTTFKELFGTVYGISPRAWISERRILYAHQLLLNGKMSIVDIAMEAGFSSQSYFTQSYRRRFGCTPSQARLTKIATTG

| SMILES | EC50 (LcrF (VirF); [1]) [µM] | activity at 50 µg/mL (Y. pseudotuberculosis) [%] | Cytotoxicity at 50 μg/mL Pseudomonas (P. aeruginosa) | EC50 (LcrF (VirF); read-out: EC50 for inhibition of LcrF(VirF)-DNA binding) [µM] | EC50 (ExsA) [µM] |
| --- | --- | --- | --- | --- | --- |
| CC(=O)c1ccc(C(=O)Nc2ccc(-c3nc4ccc(C#N)cc4n3O)cc2)cc1 [AA] | > 25 | < 75 | ** (reduced P. aeruginosa cytotoxicity below 75% of untreated, wild type levels at 50 mg/mL) |  |  |
| COc1ccc(/C=C/C(=O)Nc2ccc(-c3nc4ccc([N+](=O)[O-])cc4n3O)cc2)c(OC)c1 [AK] | > 25 | 75 to 99 | * (reduced P. aeruginosa cytotoxicity to 99-75% of untreated, wild type levels at 50 mg/mL) |  |  |
| O=C(/C=C/c1ccc(-n2ccnc2)cc1)Nc1ccc(-c2nc3ccc([N+](=O)[O-])cc3n2O)cc1 [AM, (E)-N-[4-(1-Hydroxy-6-nitro-1H-benzoimidazol-2-yl)-phenyl]-3-(4-imidazol-1-yl-phenyl)-acrylamide] |  | 75 to 99 | ** (reduced P. aeruginosa cytotoxicity below 75% of untreated, wild type levels at 50 mg/mL) | > 25 |  |
| N#Cc1ccc2nc(-c3ccc(NC(=O)/C=C/c4ccccc4)cc3)n(O)c2c1 [CL] | 10 to 25 | < 75 | * (reduced P. aeruginosa cytotoxicity to 99-75% of untreated, wild type levels at 50 mg/mL) |  | 10 to 25 |
| Cc1ccc(/C=C/C(=O)Nc2ccc(-c3nc4ccc(C#N)cc4n3O)cc2)cc1 [CP] | 10 to 25 | 75 to 99 | * (reduced P. aeruginosa cytotoxicity to 99-75% of untreated, wild type levels at 50 mg/mL) |  |  |
| O=C(Nc1ccc(-c2nc3ccc([N+](=O)[O-])cc3n2O)cc1)/C(=C/c1ccccc1)c1ccccc1 [CQ] |  | < 75 | ** (reduced P. aeruginosa cytotoxicity below 75% of untreated, wild type levels at 50 mg/mL) |  | 10 to 25 |
| O=C(Nc1ccc(-c2nc3ccc([N+](=O)[O-])cc3n2O)cc1)/C(F)=C/c1ccccc1 [CR] | 10 to 25 | < 75 | ** (reduced P. aeruginosa cytotoxicity below 75% of untreated, wild type levels at 50 mg/mL) |  |  |
| N#Cc1ccc2nc(-c3ccc(NC(=O)c4ccc(F)cc4)cc3)n(O)c2c1 [CV] | > 25 | < 75 | * (reduced P. aeruginosa cytotoxicity to 99-75% of untreated, wild type levels at 50 mg/mL) |  | 10 to 25 |
| O=C(C/C=C/c1ccccc1)Nc1ccc(-c2nc3ccc([N+](=O)[O-])cc3n2O)cc1 [CY] | > 25 | < 75 | * (reduced P. aeruginosa cytotoxicity to 99-75% of untreated, wild type levels at 50 mg/mL) |  |  |
| O=C(Nc1ccc(-c2nc3ccc([N+](=O)[O-])cc3n2O)cc1)c1ccc(F)c(F)c1 [DA] | 10 to 25 | < 75 | * (reduced P. aeruginosa cytotoxicity to 99-75% of untreated, wild type levels at 50 mg/mL) |  | 10 to 25 |
| O=C(Nc1ccc(-c2nc3ccc([N+](=O)[O-])cc3n2O)cc1)c1ccc(-c2cncnc2)cc1 [DC] | > 25 | 75 to 99 | * (reduced P. aeruginosa cytotoxicity to 99-75% of untreated, wild type levels at 50 mg/mL) |  | 10 to 25 |
| Cc1cc(C(=O)Nc2ccc(-c3nc4ccc([N+](=O)[O-])cc4n3O)cc2)ccc1F [DD] | 10 to 25 | < 75 | * (reduced P. aeruginosa cytotoxicity to 99-75% of untreated, wild type levels at 50 mg/mL) |  | 10 to 25 |
| O=C(Nc1ccc(-c2nc3ncc([N+](=O)[O-])cc3n2O)cc1)c1ccc(F)cc1 [DI] | 10 to 25 | < 75 | * (reduced P. aeruginosa cytotoxicity to 99-75% of untreated, wild type levels at 50 mg/mL) |  | 10 to 25 |
| CC(=O)c1ccc(C(=O)Nc2ccc(-c3nc4ncc([N+](=O)[O-])cc4n3O)cc2)cc1 [DJ] | 10 to 25 | < 75 | * (reduced P. aeruginosa cytotoxicity to 99-75% of untreated, wild type levels at 50 mg/mL) |  |  |
| CCc1cc(-c2nc3ccc([N+](=O)[O-])cc3n2O)ccc1NC(=O)c1ccc(C(C)=O)cc1 [DL] | 10 to 25 | < 75 | * (reduced P. aeruginosa cytotoxicity to 99-75% of untreated, wild type levels at 50 mg/mL) |  | 10 to 25 |
| COc1cc(C(=O)Nc2ccc(-c3nc4ccc([N+](=O)[O-])cc4n3O)cc2)ccc1F [DM] | 10 to 25 | < 75 | * (reduced P. aeruginosa cytotoxicity to 99-75% of untreated, wild type levels at 50 mg/mL) |  | 10 to 25 |
| O=C(Nc1ccc(-c2nc3ccc([N+](=O)[O-])cc3n2O)cc1)c1ccccc1O [DN] | 10 to 25 | < 75 | * (reduced P. aeruginosa cytotoxicity to 99-75% of untreated, wild type levels at 50 mg/mL) |  | 10 to 25 |
| CC(=O)c1ccc(C(=O)Nc2ccc(-c3nc4ccc([N+](=O)[O-])cc4n3O)nc2)cc1 [DR] | > 25 | < 75 | * (reduced P. aeruginosa cytotoxicity to 99-75% of untreated, wild type levels at 50 mg/mL) |  | 10 to 25 |
| O=C(/C=C/c1ccc(F)cc1)Nc1ccc(-c2nc3ccc([N+](=O)[O-])cc3n2O)nc1 [DZ] | 10 to 25 | < 75 | * (reduced P. aeruginosa cytotoxicity to 99-75% of untreated, wild type levels at 50 mg/mL) |  |  |
| O=C(/C=C/c1ccc(F)cc1)Nc1ccc(-c2nc3ccc([N+](=O)[O-])cc3n2O)c(F)c1 [EI] |  | 75 to 99 | * (reduced P. aeruginosa cytotoxicity to 99-75% of untreated, wild type levels at 50 mg/mL) |  | 10 to 25 |
| CC(=O)c1ccc(C(=O)Nc2ccc(-c3nc4ccc([N+](=O)[O-])cc4n3O)cc2F)cc1 [EM, 4-Acetyl-N-[2-fluoro-4-(1-hydroxy-6-nitro-H-benzoimidazol-2-yl)-phenyl]-benzamide] | 10 to 25 | < 75 | * (reduced P. aeruginosa cytotoxicity to 99-75% of untreated, wild type levels at 50 mg/mL) |  |  |
| CC(=O)c1ccc(C(=O)Nc2ccc(-c3nc4cc(C)c([N+](=O)[O-])cc4n3O)cc2)cc1 [EQ] |  | < 75 | * (reduced P. aeruginosa cytotoxicity to 99-75% of untreated, wild type levels at 50 mg/mL) |  |  |
| O=C(/C=C/c1ccc(-n2cncn2)cc1)Nc1ccc(-c2nc3ccc([N+](=O)[O-])cc3n2O)cc1 [EU, (E)-N-[4-(1-Hydroxy-6-nitro-1H-benzoimidazol-2-yl)-phenyl]-3-(4-[1,2,4]triazol-1-yl-phenyl)-acrylamide] | > 25 | 75 to 99 | ** (reduced P. aeruginosa cytotoxicity below 75% of untreated, wild type levels at 50 mg/mL) |  |  |
| CCOc1cc2nc(-c3ccc(NC(=O)/C=C/c4ccc(F)cc4)cc3)n(O)c2cc1[N+](=O)[O-] [EV, (E)-N-[4-(5-Ethoxy-1-hydroxy-6-nitro-1H-benzoimidazol-2-yl)-phenyl]-3-(4-fluoro-phenyl)-acrylamide] | 10 to 25 | 75 to 99 | ** (reduced P. aeruginosa cytotoxicity below 75% of untreated, wild type levels at 50 mg/mL) |  |  |
| Cc1cc2nc(-c3ccc(NC(=O)c4ccc(-c5cnco5)cc4)cc3)n(O)c2cc1[N+](=O)[O-] [EX, N-[4-(1-Hydroxy-5-methyl-6-nitro-1H-benzoimidazol-2-yl)-phenyl]-4-oxazol-5-v-benzamide] | > 25 | 75 to 99 | ** (reduced P. aeruginosa cytotoxicity below 75% of untreated, wild type levels at 50 mg/mL) |  |  |
| CN(C)C(=O)c1ccc(C(=O)Nc2ccc(-c3nc4ccc([N+](=O)[O-])cc4n3O)cc2)cc1 [FB] |  | < 75 | * (reduced P. aeruginosa cytotoxicity to 99-75% of untreated, wild type levels at 50 mg/mL) |  | > 25 |

Source: patent US20090131481A1, “Transcription Factor Modulating Compounds and Methods of Use Thereof” (Paratek Pharmaceuticals, Inc., published 2009)
